Article PMC9697826 (Pharmaceuticals, 2022)

Structure (SMILES) | melting point
Nc1c(C(=O)Nc2ccccc2)c(-c2ccccc2)n[nH]c1=O [Compound 4a, 5-Amino-6-oxo-3-phenyl-1,6-dihydropyridazine-4-carboxylic acid phenylamide] | 228 to 229 °C
CCn1nc(-c2ccccc2)c(C(=O)Nc2ccccc2)c(N)c1=O [Compound 5a, 5-Amino-1-ethyl-6-oxo-3-phenyl-1,6-dihydropyridazine-4-carboxylic acid phenylamide] | 172 to 173 °C
CCCNC(=O)c1c(-c2ccccc2)nn(CC)c(=O)c1N [Compound 5b, 5-Amino-1-ethyl-6-oxo-3-phenyl-1,6-dihydro-pyridazine-4-carboxylic acid propylamide] | 141 to 143 °C
NC(=O)c1c(-c2ccccc2)n[nH]c(=O)c1N [Compound 6, 5-Amino-6-oxo-3-phenyl-1,6-dihydropyridazine-4-carboxylic acid amide] | > 300 °C
N#Cc1c(-c2ccccc2)n[nH]c(=O)c1N [Compound 7, 5-Amino-6-oxo-3-phenyl-1,6-dihydropyridazine-4-carbonitrile] | 287 to 289 °C
Cc1nn(-c2ccccc2)c(=O)c(N)c1C(N)=O [Compound 16, 5-Amino-3-methyl-6-oxo-1-phenyl-1,6-dihydropyridazine-4-carboxylic acid amide] | 247 to 249 °C
Cc1nn(-c2ccccc2)c(=O)c(N)c1C#N [Compound 17, 5-Amino-3-methyl-6-oxo-1-phenyl-1,6-dihydropyridazine-4-carbonitrile] | 201 to 203 °C
CC(=O)c1cnn(-c2ccccc2)c(=O)c1N [Compound 18, 5-Acetyl-4-amino-2-phenylpyridazin-3(2H)-one] | 181 to 183 °C
NC(=O)c1c(-c2ccccc2)nn(C2CCCCC2)c(=O)c1N [Compound 21, 5-Amino-1-cyclohexyl-6-oxo-3-phenyl-1,6-dihydropyridazine-4-carboxylic acid amide] | 125 to 128 °C
Nc1cc(-c2ccccc2)nn(C2CCCCC2)c1=O [Compound 24b, 4-Amino-2-cyclohexyl-6-phenylpyridazin-3(2H)-one] | 120 to 124 °C
CC(C)n1nc(-c2ccccc2)cc(N)c1=O [Compound 24d, 4-Amino-2-isopropyl-6-phenylpyridazin-3(2H)-one] | 122 to 124 °C
CCCn1nc(-c2ccccc2)cc(N)c1=O [Compound 24e, 4-Amino-6-phenyl-2-propylpyridazin-3(2H)-one] | 79 to 81 °C
CCCCn1nc(-c2ccccc2)cc(N)c1=O [Compound 24f, 4-Amino-2-butyl-6-phenylpyridazin-3(2H)-one] | 67 to 69 °C
NC(=O)Nc1cc(-c2ccccc2)nn(C2CCCCC2)c1=O [Compound 25b, (2-Cyclohexyl-3-oxo-6-phenyl-2,3-dihydro-pyridazin-4-yl)urea] | 261 to 263 °C
CC(C)n1nc(-c2ccccc2)cc(NC(N)=O)c1=O [Compound 25d, (2-Isopropyl-3-oxo-6-phenyl-2,3-dihydro-pyridazin-4-yl)urea] | 260 to 263 °C
CCCCn1nc(-c2ccccc2)cc(NC(N)=O)c1=O [Compound 25f, (2-Butyl-3-oxo-6-phenyl-2,3-dihydro-pyridazin-4-yl)urea] | 265 to 267 °C
NC(=O)Nc1cc(-c2ccccc2)n[nH]c1=O [Compound 28, (3-Oxo-6-phenyl-2,3-dihydro-pyridazin-4-yl)urea] | > 300 °C
CC(=O)Nc1cc(-c2ccccc2)nn(C)c1=O [Compound 29a, N-(2-Methyl-3-oxo-6-phenyl-2,3-dihydro-pyridazin-4-yl)acetamide] | 211 to 212 °C
CCC(=O)Nc1cc(-c2ccccc2)nn(C)c1=O [Compound 29b, N-(2-Methyl-3-oxo-6-phenyl-2,3-dihydro-pyridazin-4-yl)propionamide] | 210 to 211 °C

Structure (SMILES) | melting point
CC(C)C(=O)Nc1cc(-c2ccccc2)nn(C)c1=O [Compound 29c, N-(2-Methyl-3-oxo-6-phenyl-2,3-dihydro-pyridazin-4-yl)isobutyramide] | 146 to 148 °C
CCCC(=O)Nc1cc(-c2ccccc2)nn(C)c1=O [Compound 29d, N-(2-Methyl-3-oxo-6-phenyl-2,3-dihydro-pyridazin-4-yl)butyramide] | 187 to 189 °C
Cn1nc(-c2ccccc2)cc(Nc2cccc(C#N)c2)c1=O [Compound 30a, 3-(2-Methyl-3-oxo-6-phenyl-2,3-dihydro-pyridazin-4-ylamino)benzonitrile] | 234 to 235 °C
Cn1nc(-c2ccccc2)cc(Nc2cccc(C(N)=O)c2)c1=O [Compound 31a, 3-(2-Methyl-3-oxo-6-phenyl-2,3-dihydro-pyridazin-4-ylamino)benzamide] | 214 to 216 °C
Cn1nc(-c2ccccc2)cc(Nc2ccccc2C(N)=O)c1=O [Compound 31b, 2-(2-Methyl-3-oxo-6-phenyl-2,3-dihydro-pyridazin-4-ylamino)benzamide] | 140 to 142 °C
Cn1nc(-c2ccccc2)cc(N)c1=S [Compound 32, 4-Amino-2-methyl-6-phenylpyridazine-3(2H)-thione] | 134 to 135 °C
Nc1cc(-c2ccsc2)n[nH]c1=O [Compound 37a, 4-Amino-6-thiophen-3-yl-pyridazin-3(2H)-one] | > 300 °C
Nc1cc(C2CCCCC2)n[nH]c1=O [Compound 37b, 4-Amino-6-cyclohexylpyridazin-3(2H)-one] | 284 to 287 °C
CC(C)c1cc(N)c(=O)[nH]n1 [Compound 37c, 4-Amino-6-isopropylpyridazin-3(2H)-one] | 246 to 248 °C
Nc1cc(Cc2ccccc2)n[nH]c1=O [Compound 37d, 4-Amino-6-benzylpyridazin-3(2H)-one] | 247 to 250 °C
Cn1nc(-c2ccsc2)cc(N)c1=O [Compound 38a, 4-Amino-2-methyl-6-thiophen-3-yl-pyridazin-3(2H)-one] | 178 to 179 °C
Cn1nc(Cc2ccccc2)cc(N)c1=O [Compound 38d, 4-Amino-6-benzyl-2-methylpyridazin-3(2H)-one] | 104 to 108 °C
Cn1nc(C2CCCCC2)cc(NC(N)=O)c1=O [Compound 39a, (6-Cyclohexyl-2-methyl-3-oxo-2,3-dihydropyridazin-4-yl)urea] | 251 to 254 °C
CC(C)c1cc(NC(N)=O)c(=O)n(C)n1 [Compound 39b, (6-Isopropyl-2-methyl-3-oxo-2,3-dihydropyridazin-4-yl)urea] | 248 to 251 °C
NC(=O)Nc1cc(-c2ccccc2O)n[nH]c1=O [Compound 40, [6-(2-Hydroxy-phenyl)-3-oxo-2,3-dihydro-pyridazin-4-yl]-urea] | > 300 °C
Cn1nc(-c2ccccc2O)cc(N)c1=O [Compound 42a, 4-Amino-6-(2-hydroxyphenyl)-2-methylpyridazin-3(2H)-one] | 212 to 213 °C
Cn1nc(-c2ccc(N)cc2)cc(N)c1=O [Compound 42b, 4-Amino-6-(4-aminophenyl)-2-methylpyridazin-3(2H)-one] | 208 to 209 °C
Cn1nc(-c2ccccc2O)cc(NC(N)=O)c1=O [Compound 43, [6-(2-Hydroxyphenyl)-2-methyl-3-oxo-2,3-dihydropyridazin-4-yl]-urea] | 278 to 280 °C
